Laboratory results: patent US7638343B2, “Method to identify or evaluate compounds useful in the field of fragrances and aromas” (priority 2004, dated 2009)

Legend:
[1] = system: human respiratory tract; experiment: Metabospace: real-time APCI-MS analysis of exhaled breath after inhalation of saturated headspace of test compound; format: in vivo; settings: for decrease of mass chromatogram signal intensity as a function of inhalation/exhalation cycles (release in exhaled breath): after nasal inhalation of the substrate, about 30 inhalation/exhalation cycles
Experimental: The “Metabospace” technology allows real-time detection and analysis of in vivo generated metabolites (exhaled volatiles) starting from compounds of interest. First, a test subject inhales the saturated headspace of a volatile compound. The saturated headspace may be provided as described in the examples herein-below. The breath is exhaled directly into a glass funnel, which works as interface to an analysis device where mass spectra are recorded by a quadrupole mass spectrometer equipped with an atmospheric pressure chemical ionization (APCI) ion source with a modified interface which allows the measurement of fast dynamic changes of volatiles as described in Grab, W., and Gfeller, H. In: ACS Symposium Series 763—Flavor Release (Roberts, D. D., and Taylor, A. J., Eds.) American Chemical Society, Washington, D.C. (2002). The procedure may be performed for example as described further in the examples herein below.
Mass spectrum scans detect the entire range of pseudomolecular ions as well as ions of fragments of molecules. If candidate metabolites are already known, e.g. from in vitro data, the mass chromatogram corresponding to the pseudomolecular ion can be directly visualized together with the chromatogram for the substrate. Acetone is always present in human breath and can be used to show the respiration pattern. Mass spectrum scans of volatiles either exhaled from the nasal or the oral cavity are recorded in narrow time spans, for example twice per second, to follow changes in breath composition as a function of time and respiration cycles. Usually, a series of scans are done to detect other ions that may be linked to the substrate and/or metabolites, which can e.g. be derived from fragments of the substrate and/or the metabolites, as is well-known to the person skilled in the art. Various mass spectrum scans are performed as is well known in the art. In the present invention, a large number of mass spectrum scans are be recorded by the mass spectrometer (for example 2 scans per second). The total ion chromatogram (TIC) gives the total of signals. Individual signals, e.g. the pseudomolecular ion [M+H]^+ for acetone at m/z 59, may be singled out and analysed over time in so-called “mass chromatograms”. Metabolites appear as additional signals in scans, and specific signals are followed over time in respective mass chromatograms. During the first inhalation/exhalation cycles, scans are analysed for ions which are present in exhalations following the inhalation of surrounding air (blank, background) and are not derived from the test compound or from metabolites. It is well known in the art how to identify unknown signals. Depending on the chemistry of the test compound and the possible metabolic reactions which can take place, particular ions are expected to occur if such metabolism takes place. To narrow down the possibilities, a hypothesis based on the test compound (enzyme substrate) and potential biotransformation reactions resulting in metabolites is used. For example, metabolites that result from reactions of the test compound with oxidizing enzymes belonging to the group of CYP enzymes may undergo metabolism including hydroxylation or epoxidation reactions, and specific signals for such metabolites may be generally found at the m/z number of the substrate plus 16. […]

[2] = system: human respiratory tract; experiment: Metabo-GM: exhaled breath trapped on Tenax TA resin, thermodesorption, GC-MS; format: in vivo
[3] = target: T1, nasal metabolic enzyme CYP2A13 (Homo sapiens, UniProt Q16696); experiment: Metabospace with volatile suppressor inhaled immediately prior to test compound; format: in vivo; settings: suppressor (inhibitor of CYP2A13) inhaled immediately prior to test compound; compared with runs without suppressor
T1 construct: from tissue; host or cells: nasal cavity / respiratory tract of a living test subject
T1 sequence (Q16696 1-494): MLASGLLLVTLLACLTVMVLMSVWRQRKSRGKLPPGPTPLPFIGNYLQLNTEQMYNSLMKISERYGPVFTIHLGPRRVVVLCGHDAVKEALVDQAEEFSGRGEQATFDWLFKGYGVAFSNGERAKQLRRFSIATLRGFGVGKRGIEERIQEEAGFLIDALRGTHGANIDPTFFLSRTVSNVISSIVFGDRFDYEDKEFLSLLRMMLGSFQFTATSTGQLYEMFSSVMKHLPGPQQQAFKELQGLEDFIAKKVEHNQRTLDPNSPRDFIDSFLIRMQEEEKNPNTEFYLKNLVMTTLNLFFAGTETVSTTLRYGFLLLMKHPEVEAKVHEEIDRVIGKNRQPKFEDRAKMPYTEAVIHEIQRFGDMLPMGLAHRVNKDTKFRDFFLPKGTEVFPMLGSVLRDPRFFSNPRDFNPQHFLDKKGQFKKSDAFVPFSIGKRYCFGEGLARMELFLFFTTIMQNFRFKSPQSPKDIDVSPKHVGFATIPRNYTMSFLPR
Experimental: A volatile suppressor compound (inhibitor of nasal metabolic enzyme CYP2A13) is inhaled immediately prior to the inhalation of the test compound 2-methoxyacetophenone.
The test subject performs three runs in a row: (1) test compound only; (2) suppressor followed by test compound; (3) test compound only. Before and between runs, blank controls are recorded (inhalation of room air and recording of 30 inhalation/exhalation cycles).
The procedure is performed as described in example 6A, however, as a test compound ketanone is used and ketanone and its metabolite 4-(4-hydroxyphenyl)butan-2-one (raspberry ketone) are detected as described in example 5.

[4] = system: olfactory perception; settings: cited from earlier work; for olfactory threshold / odour intensity: raspberry aroma, Winter (1961) Helv. Chim. Acta 44:2110
[5] = system: carboxyl esterase; experiment: Metabo-GM with inhibitor of carboxyl esterase as suppressor inhaled before test compound; format: in vivo, human; settings: for proportion of detected metabolite with suppressor compared to analysis without suppressor: carboxyl esterase inhibitor inhaled first, then test compound; for metabolite detected in exhaled breath by GC-MS: without suppressor
Experimental: The procedure is performed as described in examples 7 and 10 subject to the following modifications:
As suppressor, an inhibitor for carboxyl esterase is used. As test compound, phenethylacetate is used, which is a substrate for carboxyl esterase.
The procedure is performed as described in example 12A with an inhibitor for carboxyl esterase as suppressor, subject to the following modifications:
As test compound, styrallylacetate is used, which is a substrate for carboxyl esterase.

[6] = system: carboxyl esterases; experiment: Cascade Olfactometer: perceived odour intensity and olfactory threshold of odorant with modulator (inhibitor of carboxyl esterases); format: in vivo, human
Experimental: A modulator is identified using an Olfactometer. As reference test compounds, odorant esters are used. A second test compound (potential modulator, modulator test compound) is tested in combination with these odorant test compounds. The odorant reference test compound is kept at a constant concentration with the modulator concentration being varied.
If metabolism is taking place, the amount of styrallylacetate which is stimulating the olfactory system is decreased.
A standard concentration (appropriate dilution of saturated headspace) of the odorant test compound is provided in one Olfactometer (cascade 1) as the reference, while in the second olfactometer (cascade 2) the odorant test compound is provided at the standard concentration supplemented with various concentrations of the modulator (appropriate dilutions of saturated headspace).
First, the threshold for the odorant styrallylacetate is determined for each test subject. The standard concentration is chosen so that it is perceived to be of week to moderate intensity as judged by each test subject.
The concentrations of the modulator test compound are chosen to be below the olfactory threshold of the test subject.
A sample is provided as headspace in a saturation chamber. The flow from said chamber is added to a carrier gas supply and mixed in a chamber which is connected with the sniffing port where a test subject detects the stimulus. Said flow (the headspace of the sample before addition to the carrier) is determined and adjusted so that the test subject rates said flow as medium intensity. This is the reference that is used in cascade 1. For styrallylacetate, a flow of 20 ml/min of the odorant is used. […]
The effect of the modulator on the olfactory threshold of styrallylacetate is determined in as follows. […]
Alternatively, a dose response curve is recorded using one olfactometer (Cascade 2) by providing samples above and below the detected olfactory threshold of the test subjects. This is compared to the known threshold of the compound which is recorded beforehand. […]

[7] = inhalation and exhalation both through the mouth

Row | SMILES | decrease of mass chromatogram signal intensity as a function of inhalation/exhalation cycles (release in exhaled breath) [1] | amount of metabolite detected in exhaled breath by GC-MS [2, 7] | metabolite signal in exhaled breath in presence of suppressor [3] | olfactory threshold / odour intensity [4] | proportion of detected metabolite with suppressor compared to analysis without suppressor [5] | metabolite detected in exhaled breath by GC-MS [5] | further results
1 | O=C(CO)c1ccccc1 [2-hydroxyacetophenone] | still near maximal intensity after 30 inhalation/exhalation recordings | – | – | – | – | – | –
2 | COCC(=O)c1ccccc1 [2-methoxyacetophenone] | decreases relatively quickly, within about 30 inhalation/exhalation cycles | only in a small amount barely detectable | considerably less metabolite is formed in presence of the suppressor | – | – | – | metabolite signal in exhaled breath ([1]; first variant: inhalation and exhalation both through the mouth): no signal corresponding to the metabolite is detected; amount of metabolite detected in exhaled breath by GC-MS ([2]; inhalation through the mouth, exhalation through the nose): significantly more metabolite is detected
3 | CC(=O)CCc1ccc(O)cc1 [4-(4-hydroxyphenyl)butan-2-one] | – | – | – | very low olfactory threshold | – | – | –
4 | COc1ccc(CCC(C)=O)cc1 [ketanone] | retarded release of the more hydrophilic metabolite is observed | – | significantly decreased signal intensity for the metabolite | significantly less intense | – | – | metabolite detected in exhaled breath (mass chromatogram signal) ([1]; inhalation and exhalation through the nose, human test subject): a compound is detected at m/z 165 which corresponds to 4(4-hydroxyphenyl)butan-2-one (raspberry ketone)
5 | CC(=O)OCCc1ccccc1 [phenethylacetate] | – | – | – | – | about 50% | phenethylalcohol is detected | –
6 | CC(=O)OC(C)c1ccccc1 (stereo not drawn) [styrallylacetate] | – | Less styrallylalcohol (metabolite) is detected | – | – | significantly lower | styrallylalcohol is detected | olfactory threshold relative to its metabolite ([4]; compared with styrallylalcohol): lower threshold than its metabolite styrallylalcohol; olfactory threshold combined with modulator versus odorant alone ([6]; dose response curve, one olfactometer, modulator constant): lower than the determined olfactory threshold for styrallylacetate alone; perceived intensity of the odorant in presence of the potential modulator ([6]; odorant flow 20 ml/min constant, modulator flow varied 1 to 900 ml/min, below its olfactory threshold, versus reference without modulator): intensity of the odorant is increased; odour intensity in presence of modulator versus reference (JND protocol) ([6]; styrallylacetate 20 ml/min in both cascades, modulator 5 ml/min in cascade 2): stronger than the reference concentration; metabolite detected in exhaled breath by GC-MS ([2]; inhalation and exhalation through the nose): Significant amounts of styrallylalcohol and acetic acid (metabolites) are detected
